Test [1] relates to ERK phosphorylation in KYSE-520 cells. Briefly: Phospho-ERK cellular assay. The format is cell-based. As to conditions: Homo sapiens, read-out: PERK IC50. The method, boiled down:
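TR-FRET read-out of ERK1/2 Thr202/Tyr204 phosphorylation was taken after overnight antibody incubation at room temperature. Before that, KYSE-520 cells were treated 2 h at 37 °C with compound dilutions and lysed 30 min. Percent inhibition relative to vehicle and cell-free wells was fitted four-parametrically to give IC50.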

The target in test [2] is SHP-2 enzyme (Met1-Leu525) (Homo sapiens (Human), UniProt Q06124). Description: SHP2 inhibition enzymatic assay. Format: biochemical. The settings on record: 75 μM DiFMUP substrate. The method, boiled down:
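Compounds were preincubated 30 min with 0.5 nM SHP-2 (Met1-Leu525) plus 500 nM IRS1 activating peptide (pH 7.2 HEPES, 5 mM DTT), then 75 μM DiFMUP substrate reacted 30 min at room temperature. After bpV quench, DiFMUP fluorescence gave % inhibition; four-parameter logistic fit yielded IC50.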

Setting [3] is: KYSE-520, 2 h, KYSE-520 cells, 2 h at 37° C., phospho-ERK1/2 (Thr202/Tyr204) TR-FRET.
Setting [4] is: 0.5 nM SHP-2 activated by 500 nM IRS1 peptide, read-out: SHP2wt-IC50.

Like-named read-outs stand apart in the source and are kept apart here.

In general, IC50 refers to the midpoint of a concentration-inhibition curve.

SHP-2 enzyme (Met1-Leu525), sequence (Q06124 1-525): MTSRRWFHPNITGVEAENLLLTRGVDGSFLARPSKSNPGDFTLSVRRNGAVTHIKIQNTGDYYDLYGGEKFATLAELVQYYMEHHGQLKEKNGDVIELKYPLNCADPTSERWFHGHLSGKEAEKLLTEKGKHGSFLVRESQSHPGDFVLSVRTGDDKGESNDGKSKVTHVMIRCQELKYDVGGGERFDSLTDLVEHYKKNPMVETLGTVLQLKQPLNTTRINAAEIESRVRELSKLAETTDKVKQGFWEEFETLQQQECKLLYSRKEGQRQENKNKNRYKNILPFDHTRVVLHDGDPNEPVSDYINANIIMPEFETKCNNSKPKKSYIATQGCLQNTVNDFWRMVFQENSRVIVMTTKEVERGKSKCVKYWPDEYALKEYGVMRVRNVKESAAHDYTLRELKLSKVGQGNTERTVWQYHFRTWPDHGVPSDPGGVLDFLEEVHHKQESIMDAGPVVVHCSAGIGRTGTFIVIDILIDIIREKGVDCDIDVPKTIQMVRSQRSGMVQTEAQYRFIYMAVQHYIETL

Regarding `Cc1csc(C2(CN)C3CCN(c4cnc5c(-c6ccccc6Cl)n[nH]c5n4)CC32)n1` (centres unmarked) [Example 84, (3-(3-(2-chlorophenyl)-1H-pyrazolo[3,4-b]pyrazin-6-yl)-7-(4-methylthiazol-2-yl)-3-azabicyclo[4.1.0]heptan-7-yl)methanamine], the IC50 in test [1] (setting [3]) was below 1000 nM; in test [2] (setting [4]), below 500 nM.

With `NCC1(c2cccc(F)c2)C2CCN(c3nc4[nH]nc(-c5cccc(Cl)c5Cl)c4nc3CO)CC21` (centres unmarked) [Example 55, (6-(7-(aminomethyl)-7-(3-fluorophenyl)-3-azabicyclo[4.1.0]heptan-3-yl)-3-(2,3-dichlorophenyl)-1H-pyrazolo[3,4-b]pyrazin-5-yl)methanol], the IC50 in test [1] (setting [3]) is below 1000 nM; in test [2] (setting [4]) it was below 500 nM.

Turning to `NC[C@]1(c2cccc(F)c2F)[C@@H]2CCN(c3cnc4c(-c5ccnc(N)c5Cl)n[nH]c4n3)C[C@@H]21` [Example 178, 4-(6-((1S,6R,7R)-7-(aminomethyl)-7-(2,3-difluorophenyl)-3-azabicyclo[4.1.0]heptan-3-yl)-1H-pyrazolo[3,4-b]pyrazin-3-yl)-3-chloropyridin-2-amine], the IC50 is below 1000 nM in test [1] (setting [3]) and below 500 nM in test [2] (setting [4]).

With `Cc1csc(C2(CN)C3CCN(c4cnc5c(-c6ccc(S(=O)(=O)F)c7ccccc67)n[nH]c5n4)CC32)n1` (centres unmarked) [Example 443, 4-(6-(7-(aminomethyl)-7-(4-methylthiazol-2-yl)-3-azabicyclo[4.1.0]heptan-3-yl)-1H-pyrazolo[3,4-b]pyrazin-3-yl)naphthalene-1-sulfonyl fluoride], the IC50 in test [1] (KYSE-520, 2 h) was below 1000 nM; in test [2] (SHP2wt-IC50, 0.5 nM SHP-2 activated by 500 nM IRS1 peptide) it was 500 to 3000 nM.

With `Cc1csc([C@@]2(CN)[C@@H]3CN(c4cnc5c(-c6ccc(-n7cccn7)cc6Cl)n[nH]c5n4)C[C@@H]32)n1` [Example 283, ((1R,5S,6r)-3-(3-(2-chloro-4-(1H-pyrazol-1-yl)phenyl)-1H-pyrazolo[3,4-b]pyrazin-6-yl)-6-(4-methylthiazol-2-yl)-3-azabicyclo[3.1.0]hexan-6-yl)methanamine], the IC50 is below 1000 nM in test [1] (KYSE-520 cells, 2 h at 37° C., phospho-ERK1/2 (Thr202/Tyr204) TR-FRET) and below 500 nM in test [2] (setting [4]).

As for `Cc1c(-c2ccc3nc(N4CC[C@@H]5[C@H](C4)[C@@]5(CN)c4ccccc4F)cnc3n2)ccc2nn(C)cc12` [Example 425, ((1S,6R,7R)-3-(6-(2,4-dimethyl-2H-indazol-5-yl)pyrido[2,3-b]pyrazin-2-yl)-7-(2-fluorophenyl)-3-azabicyclo[4.1.0]heptan-7-yl)methanamine], the results for the IC50 in test [1] (setting [3]) and in test [2] (setting [4]) were below 1000 nM and below 500 nM, respectively.

Take `Cc1csc(C2(CN)C3CCN(c4cnc5c(-c6cccc7ncccc67)n[nH]c5n4)CC32)n1` (centres unmarked) [Example 88, (7-(4-methylthiazol-2-yl)-3-(3-(quinolin-5-yl)-1H-pyrazolo[3,4-b]pyrazin-6-yl)-3-azabicyclo[4.1.0]heptan-7-yl)methanamine]: the values for the IC50 in test [1] (setting [3]) and in test [2] (setting [4]) were below 1000 nM and below 500 nM, respectively.

With `Cn1cc2c(Cl)c(-c3n[nH]c4nc(N5C[C@@H]6[C@H](C5)[C@@]6(CN)c5c(F)cccc5F)cnc34)ccc2n1` [Example 221, ((1R,5S,6s)-3-(3-(4-chloro-2-methyl-2H-indazol-5-yl)-1H-pyrazolo[3,4-b]pyrazin-6-yl)-6-(2,6-difluorophenyl)-3-azabicyclo[3.1.0]hexan-6-yl)methanamine], the IC50 in test [1] (setting [3]) is below 1000 nM; in test [2] (setting [4]), below 500 nM.

Turning to `Cc1cc(C2(CN)C3CCN(c4cnc5c(-c6cccc(Cl)c6Cl)n[nH]c5n4)CC32)no1` (centres unmarked) [Example 8, (3-(3-(2,3-dichlorophenyl)-1H-pyrazolo[3,4-b]pyrazin-6-yl)-7-(5-methylisoxazol-3-yl)-3-azabicyclo[4.1.0]heptan-7-yl)methanamine], the IC50 in test [1] (setting [3]) is below 1000 nM; in test [2] (setting [4]), below 500 nM.

Turning to `Cn1nccc1C1(CN)C2CCN(c3cnc4c(-c5cccc(Cl)c5Cl)n[nH]c4n3)CC21` (centres unmarked) [Example 97, (3-(3-(2,3-dichlorophenyl)-1H-pyrazolo[3,4-b]pyrazin-6-yl)-7-(1-methyl-1H-pyrazol-5-yl)-3-azabicyclo[4.1.0]heptan-7-yl)methanamine], the IC50 was below 1000 nM in test [1] (setting [3]) and below 500 nM in test [2] (setting [4]).

As for `NC[C@]1(c2ccccc2F)[C@@H]2CCN(c3cnc4c(-c5ccc6c(c5)NC(=O)CC6)n[nH]c4n3)C[C@@H]21` [Example 230, 7-(6-((1S,6R,7R)-7-(aminomethyl)-7-(2-fluorophenyl)-3-azabicyclo[4.1.0]heptan-3-yl)-1H-pyrazolo[3,4-b]pyrazin-3-yl)-3,4-dihydroquinolin-2(1H)-one], the IC50 was below 1000 nM in test [1] (setting [3]) and below 500 nM in test [2] (setting [4]).

On to `COC(=O)c1ccc(-c2n[nH]c3nc(N4CC[C@@H]5[C@H](C4)[C@@]5(CN)c4ccccc4F)cnc23)c(Cl)c1` [Example 223, methyl 4-(6-((1S,6R,7R)-7-(aminomethyl)-7-(2-fluorophenyl)-3-azabicyclo[4.1.0]heptan-3-yl)-1H-pyrazolo[3,4-b]pyrazin-3-yl)-3-chlorobenzoate], for which the IC50 in test [1] (setting [3]) is below 1000 nM; in test [2] (setting [4]), below 500 nM.

Regarding `Cc1cc(C2(CN)C3CCN(c4cnc5c(-c6cccc7nn(C)cc67)n[nH]c5n4)CC32)no1` (centres unmarked) [Example 26, (3-(3-(2-methyl-2H-indazol-4-yl)-1H-pyrazolo[3,4-b]pyrazin-6-yl)-7-(5-methylisoxazol-3-yl)-3-azabicyclo[4.1.0]heptan-7-yl)methanamine], the results for the IC50 in test [1] (setting [3]) and in test [2] (setting [4]) were below 1000 nM and below 500 nM, respectively.

With `Cn1cc2c(Cl)c(-c3n[nH]c4nc(N5C[C@@H]6[C@H](C5)[C@@]6(CN)c5ncc(F)s5)cnc34)ccc2n1` [Example 489, ((1R,5S,6r)-3-(3-(4-chloro-2-methyl-2H-indazol-5-yl)-1H-pyrazolo[3,4-b]pyrazin-6-yl)-6-(5-fluorothiazol-2-yl)-3-azabicyclo[3.1.0]hexan-6-yl)methanamine], the IC50 in test [1] (setting [3]) was below 1000 nM; in test [2] (setting [4]), below 500 nM.

For the molecule `NC[C@]1(c2ccccc2F)[C@@H]2CCN(c3cnc4c(-c5ccc6ccc(=O)[nH]c6c5)n[nH]c4n3)C[C@@H]21` [Example 231, 7-(6-((1S,6R,7R)-7-(aminomethyl)-7-(2-fluorophenyl)-3-azabicyclo[4.1.0]heptan-3-yl)-1H-pyrazolo[3,4-b]pyrazin-3-yl)quinolin-2(1H)-one], the IC50 in test [1] (setting [3]) was below 1000 nM; in test [2] (setting [4]) it was below 500 nM.

Take `Cn1cc2c(Cl)c(-c3n[nH]c4nc(N5CCC6C(C5)C6(CN)c5cc(C6CC6)on5)cnc34)ccc2n1` (centres unmarked) [Example 48, (3-(3-(4-chloro-2-methyl-2H-indazol-5-yl)-1H-pyrazolo[3,4-b]pyrazin-6-yl)-7-(5-cyclopropylisoxazol-3-yl)-3-azabicyclo[4.1.0]heptan-7-yl)methanamine]: the IC50 in test [1] (setting [3]) is below 1000 nM; in test [2] (setting [4]) it was below 500 nM.

Turning to `Cc1ccc(-c2n[nH]c3nc(N4CC[C@@H]5[C@H](C4)[C@@]5(CN)c4ccccc4F)cnc23)c2ccnn12` [Example 161, ((1S,6R,7R)-7-(2-fluorophenyl)-3-(3-(7-methylpyrazolo[1,5-a]pyridin-4-yl)-1H-pyrazolo[3,4-b]pyrazin-6-yl)-3-azabicyclo[4.1.0]heptan-7-yl)methanamine], the IC50 is below 1000 nM in test [1] (setting [3]) and below 500 nM in test [2] (setting [4]).

For the molecule `Cc1csc([C@@]2(CN)[C@@H]3CN(c4cnc5c(-c6cccc(Cl)c6Cl)n[nH]c5n4)CC[C@@H]32)n1` [Example 437, ((1R,6S,7R)-3-(3-(2,3-dichlorophenyl)-1H-pyrazolo[3,4-b]pyrazin-6-yl)-7-(4-methylthiazol-2-yl)-3-azabicyclo[4.1.0]heptan-7-yl)methanamine], the IC50 was 1000 to 5000 nM in test [1] (setting [3]) and below 500 nM in test [2] (setting [4]).

In the case of `NC[C@]1(c2ccccc2F)[C@@H]2CCN(c3cnc4nc(Sc5ccnc(N)c5Cl)ccc4n3)C[C@@H]21` [Example 395, 4-((2-((1S,6R,7R)-7-(aminomethyl)-7-(2-fluorophenyl)-3-azabicyclo[4.1.0]heptan-3-yl)pyrido[2,3-b]pyrazin-6-yl)thio)-3-chloropyridin-2-amine], the values for the IC50 in test [1] (setting [3]) and in test [2] (setting [4]) were below 1000 nM and below 500 nM, respectively.

As to `Cc1cc(C2(CN)C3CCN(c4cnc5c(-c6ccc(C)c7ncccc67)n[nH]c5n4)CC32)no1` (centres unmarked) [Example 21, (7-(5-methylisoxazol-3-yl)-3-(3-(8-methylquinolin-5-yl)-1H-pyrazolo[3,4-b]pyrazin-6-yl)-3-azabicyclo[4.1.0]heptan-7-yl)methanamine], the values for the IC50 in test [1] (setting [3]) and in test [2] (setting [4]) were below 1000 nM and below 500 nM, respectively.

On to `NC[C@]1(c2ccccc2F)[C@@H]2CCN(c3cnc4nc(Oc5ccc(F)cc5)ccc4n3)C[C@@H]21` [Example 409, ((1S,6R,7R)-3-(6-(4-fluorophenoxy)pyrido[2,3-b]pyrazin-2-yl)-7-(2-fluorophenyl)-3-azabicyclo[4.1.0]heptan-7-yl)methanamine], for which the IC50 was below 1000 nM in test [1] (setting [3]) and below 500 nM in test [2] (setting [4]).

In the case of `NCC1(c2ncccn2)C2CCN(c3cnc4c(-c5cccc(Cl)c5Cl)n[nH]c4n3)CC21` (centres unmarked) [Example 83, (3-(3-(2,3-dichlorophenyl)-1H-pyrazolo[3,4-b]pyrazin-6-yl)-7-(pyrimidin-2-yl)-3-azabicyclo [4.1.0]heptan-7-yl)methanamine], the IC50 in test [1] (setting [3]) is below 1000 nM; in test [2] (setting [4]), below 500 nM.

Source of the values: US20240109900A1, “AZABICYCLIC SHP2 INHIBITORS” (IRBM S.P.A., priority 2021, published 2024).
